According to patent publication US8501770B2 (ArQule, Inc., priority 2009, dated 2013):

Target: Full-length inactive AKT1 (Homo sapiens, UniProt P31749)
Assay: Inactive Akt Alpha Screen Assay
Format: biochemical
Conditions: values not marked with "*"; read-out: Akt1 IC50, (AlphaScreen)
Outline: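 AlphaScreen read-out (excitation 640 nm, emission 570 nm) after 90 min incubation at room temperature in the dark. Signal comes from crosstide phosphorylation by AKT1, which was activated by added PDK1, MAPKAPK2, ATP and lipid vesicles, captured via phospho-AKT substrate antibody and streptavidin beads.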

Full-length inactive AKT1, sequence (P31749 whole entry): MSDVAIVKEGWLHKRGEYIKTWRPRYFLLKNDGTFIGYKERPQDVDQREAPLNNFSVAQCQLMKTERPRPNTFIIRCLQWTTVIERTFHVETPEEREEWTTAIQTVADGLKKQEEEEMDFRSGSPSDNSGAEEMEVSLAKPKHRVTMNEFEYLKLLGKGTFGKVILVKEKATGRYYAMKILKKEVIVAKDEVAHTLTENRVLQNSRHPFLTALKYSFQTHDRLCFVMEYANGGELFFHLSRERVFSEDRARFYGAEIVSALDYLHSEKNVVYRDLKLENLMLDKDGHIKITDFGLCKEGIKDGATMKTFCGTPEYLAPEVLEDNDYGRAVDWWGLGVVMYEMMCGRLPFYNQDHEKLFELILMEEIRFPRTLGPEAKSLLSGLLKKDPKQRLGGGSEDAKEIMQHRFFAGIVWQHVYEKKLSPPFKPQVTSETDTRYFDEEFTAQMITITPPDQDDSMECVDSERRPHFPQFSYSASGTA

| SMILES | IC50 [nM] |
| --- | --- |
| CNC(=O)C1(c2ccc(-n3c(-c4cccnc4N)nc4ccc(-c5ccccc5)nc43)cc2)CCC1 [Example 378, 1-(4-(2-(2-aminopyridin-3-yl)-5-phenyl-3H-imidazo[4,5-b]pyridin-3-yl)phenyl)-N-methylcyclobutanecarboxamide] | 93 |
| Nc1ncccc1-c1nc2ccc(-c3ccccc3)nc2n1-c1ccc(C2(C(=O)NCCO)CCC2)cc1 [Example 379, 1-(4-(2-(2-aminopyridin-3-yl)-5-phenyl-3H-imidazo[4,5-b]pyridin-3-yl)phenyl)-N-(2-hydroxyethyl)cyclobutanecarboxamide] | 290 |
| CN(C)C(=O)c1cccc(-c2ccc3nc(-c4cccnc4N)n(-c4ccc(C5(N)CCC5)cc4)c3n2)c1 [Example 380, 3-(3-(4-(1-aminocyclobutyl)phenyl)-2-(2-aminopyridin-3-yl)-3H-imidazo[4,5-b]pyridin-5-yl)-N,N-dimethylbenzamide] | 3.3 |
| Nc1ncccc1-c1nc2ccc(-c3ccccc3)nc2n1-c1ccc(C2(NC(=O)Nc3ccccc3)CCC2)cc1 [Example 381, 1-(1-(4-(2-(2-aminopyridin-3-yl)-5-phenyl-3H-imidazo[4,5-b]pyridin-3-yl)phenyl)cyclobutyl)-3-phenylurea] | 54 |
| Nc1ncccc1-c1nc2ccc(-c3ccccc3CO)nc2n1-c1ccc(C2(N)CCC2)cc1 [Example 382, (2-(3-(4-(1-aminocyclobutyl)phenyl)-2-(2-aminopyridin-3-yl)-3H-imidazo[4,5-b]pyridin-5-yl)phenyl)methanol] | 10 |
| Nc1ncccc1-c1nc2ccc(-c3ccc(CO)cc3)nc2n1-c1ccc(C2(N)CCC2)cc1 [Example 383, (4-(3-(4-(1-aminocyclobutyl)phenyl)-2-(2-aminopyridin-3-yl)-3H-imidazo[4,5-b]pyridin-5-yl)phenyl)methanol] | 3.7 |
| NC(=O)c1ccccc1-c1ccc2nc(-c3cccnc3N)n(-c3ccc(C4(N)CCC4)cc3)c2n1 [Example 384, 2-(3-(4-(1-aminocyclobutyl)phenyl)-2-(2-aminopyridin-3-yl)-3H-imidazo[4,5-b]pyridin-5-yl)benzamide] | 37 |
| Nc1ncccc1-c1nc2ccc(-c3cccc(C(=O)NCCO)c3)nc2n1-c1ccc(C2(N)CCC2)cc1 [Example 385, 3-(3-(4-(1-aminocyclobutyl)phenyl)-2-(2-aminopyridin-3-yl)-3H-imidazo[4,5-b]pyridin-5-yl)-N-(2-hydroxyethyl)benzamide] | 2.8 |
| CN(CCO)C(=O)c1cccc(-c2ccc3nc(-c4cccnc4N)n(-c4ccc(C5(N)CCC5)cc4)c3n2)c1 [Example 386, 3-(3-(4-(1-aminocyclobutyl)phenyl)-2-(2-aminopyridin-3-yl)-3H-imidazo[4,5-b]pyridin-5-yl)-N-(2-hydroxyethyl)-N-methylbenzamide] | 2.3 |
| NC(=O)c1ccc(-c2ccc3nc(-c4cccnc4N)n(-c4ccc(C5(N)CCC5)cc4)c3n2)cc1 [Example 387, 4-(3-(4-(1-aminocyclobutyl)phenyl)-2-(2-aminopyridin-3-yl)-3H-imidazo[4,5-b]pyridin-5-yl)benzamide] | 8.7 |
| Nc1ncccc1-c1nc2ccc(-c3cccc(C(=O)N4CCOCC4)c3)nc2n1-c1ccc(C2(N)CCC2)cc1 [Example 388, (3-(3-(4-(1-aminocyclobutyl)phenyl)-2-(2-aminopyridin-3-yl)-3H-imidazo[4,5-b]pyridin-5-yl)phenyl)(morpholino)methanone] | 3 |
| Nc1ncccc1-c1nc2ccc(-c3cccc(O)c3)nc2n1-c1ccc(C2(N)CCC2)cc1 [Example 389, 3-(3-(4-(1-aminocyclobutyl)phenyl)-2-(2-aminopyridin-3-yl)-3H-imidazo[4,5-b]pyridin-5-yl)phenol] | 1.6 |
| Nc1ncccc1-c1nc2ccc(-c3cccc(N4CCOCC4)c3)nc2n1-c1ccc(C2(N)CCC2)cc1 [Example 390, 3-(3-(4-(1-aminocyclobutyl)phenyl)-5-(3-morpholinophenyl)-3H-imidazo[4,5-b]pyridin-2-yl)pyridin-2-amine] | 2.3 |
| CS(=O)(=O)c1cccc(-c2ccc3nc(-c4cccnc4N)n(-c4ccc(C5(N)CCC5)cc4)c3n2)c1 [Example 391, 3-(3-(4-(1-aminocyclobutyl)phenyl)-5-(3-(methylsulfonyl)phenyl)-3H-imidazo[4,5-b]pyridin-2-yl)pyridin-2-amine] | 5 |
| N#Cc1cccc(-c2ccc3nc(-c4cccnc4N)n(-c4ccc(C5(N)CCC5)cc4)c3n2)c1 [Example 392, 3-(3-(4-(1-aminocyclobutyl)phenyl)-2-(2-aminopyridin-3-yl)-3H-imidazo[4,5-b]pyridin-5-yl)benzonitrile] | 7.1 |
| Nc1ncccc1-c1nc2ccc(-c3ccccn3)nc2n1-c1ccc(C2(N)CCC2)cc1 [Example 393, 3-(3-(4-(1-aminocyclobutyl)phenyl)-5-(pyridin-2-yl)-3H-imidazo[4,5-b]pyridin-2-yl)pyridin-2-amine] | 3.7 |
| Nc1ncccc1-c1nc2ccc(-c3ccncc3)nc2n1-c1ccc(C2(N)CCC2)cc1 [Example 394, 3-(3-(4-(1-aminocyclobutyl)phenyl)-5-(pyridin-4-yl)-3H-imidazo[4,5-b]pyridin-2-yl)pyridin-2-amine] | 3.9 |
| Nc1ncccc1-c1nc2ccc(-c3cncnc3)nc2n1-c1ccc(C2(N)CCC2)cc1 [Example 395, 3-(3-(4-(1-aminocyclobutyl)phenyl)-5-(pyrimidin-5-yl)-3H-imidazo[4,5-b]pyridin-2-yl)pyridin-2-amine] | 9.8 |
| COc1cccc(-c2ccc3nc(-c4cccnc4N)n(-c4ccc(C5(N)CCC5)cc4)c3n2)c1 [Example 396, 3-(3-(4-(1-aminocyclobutyl)phenyl)-5-(3-methoxyphenyl)-3H-imidazo[4,5-b]pyridin-2-yl)pyridin-2-amine] | 3.2 |
| Nc1ncccc1-c1nc2ccc(-c3cccc4[nH]ccc34)nc2n1-c1ccc(C2(N)CCC2)cc1 [Example 397, 3-(3-(4-(1-aminocyclobutyl)phenyl)-5-(1H-indol-4-yl)-3H-imidazo[4,5-b]pyridin-2-yl)pyridin-2-amine] | 3.8 |
| CN(C)Cc1cccc(-c2ccc3nc(-c4cccnc4N)n(-c4ccc(C5(N)CCC5)cc4)c3n2)c1 [Example 398, 3-(3-(4-(1-aminocyclobutyl)phenyl)-5-(3-((dimethylamino)methyl)phenyl)-3H-imidazo[4,5-b]pyridin-2-yl)pyridin-2-amine] | 6.4 |
| CN(C)C(=O)c1ccc(-c2ccc3nc(-c4cccnc4N)n(-c4ccc(C5(N)CCC5)cc4)c3n2)cc1 [Example 399, 4-(3-(4-(1-aminocyclobutyl)phenyl)-2-(2-aminopyridin-3-yl)-3H-imidazo[4,5-b]pyridin-5-yl)-N,N-dimethylbenzamide] | 21 |
| CNC(=O)c1ccc(-c2ccc3nc(-c4cccnc4N)n(-c4ccc(C5(N)CCC5)cc4)c3n2)cc1 [Example 400, 4-(3-(4-(1-aminocyclobutyl)phenyl)-2-(2-aminopyridin-3-yl)-3H-imidazo[4,5-b]pyridin-5-yl)-N-methylbenzamide] | 13 |
| Nc1ncccc1-c1nc2ccc(-c3cnccn3)nc2n1-c1ccc(C2(N)CCC2)cc1 [Example 401, 3-(3-(4-(1-aminocyclobutyl)phenyl)-5-(pyrazin-2-yl)-3H-imidazo[4,5-b]pyridin-2-yl)pyridin-2-amine] | 6.4 |
